Assay results: patent US9981972B2, “N-hydroxy bicyclic hydantoin carbamates as tools for identification of serine hydrolase targets” (ABIDE THERAPEUTICS, INC., priority 2014, dated 2018)
Where two headings read alike, the source gives them in different places. Blank lines part the entries; values can stand above or below the compound they belong to.

Assays:
ABHD4 [1] = target: T1, ABHD4 (Homo sapiens, UniProt Q8TB40); assay: Gel-based competitive ABPP, recombinant enzyme in transfected HEK293T cell lysates; type: biochemical; set-up: myc-his; expressed in transfected cells; host or cells: HEK293T, transient transfection, pcDNA3.1/myc-his; lysate used in vitro; conditions: recombinant
T1 sequence (Q8TB40 1-342): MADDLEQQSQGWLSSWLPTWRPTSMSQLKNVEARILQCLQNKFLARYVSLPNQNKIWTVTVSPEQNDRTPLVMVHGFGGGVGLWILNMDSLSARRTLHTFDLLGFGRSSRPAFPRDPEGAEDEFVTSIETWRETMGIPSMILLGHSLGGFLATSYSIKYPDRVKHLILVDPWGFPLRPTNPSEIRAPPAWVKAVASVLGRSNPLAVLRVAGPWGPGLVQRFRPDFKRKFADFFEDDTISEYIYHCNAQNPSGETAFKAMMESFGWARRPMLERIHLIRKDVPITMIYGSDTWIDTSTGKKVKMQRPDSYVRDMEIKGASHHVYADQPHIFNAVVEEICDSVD
Summary of the method: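 Human ABHD4 was expressed by transient transfection in HEK293T cells, and lysates were combined with those expressing ABHD3. Inhibition was monitored by gel-based competitive activity-based protein profiling, with compound applied either in situ to cells or in vitro to lysates.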

mABHD3 = target: T2, mABHD3 (Mus musculus, UniProt Q91ZH7); assay: as above; type: biochemical
T2 construct: expressed in transfected cells; host or cells: HEK293T, transient transfection, pCMV-Sport6; lysate used in vitro
T2 sequence (Q91ZH7 1-411): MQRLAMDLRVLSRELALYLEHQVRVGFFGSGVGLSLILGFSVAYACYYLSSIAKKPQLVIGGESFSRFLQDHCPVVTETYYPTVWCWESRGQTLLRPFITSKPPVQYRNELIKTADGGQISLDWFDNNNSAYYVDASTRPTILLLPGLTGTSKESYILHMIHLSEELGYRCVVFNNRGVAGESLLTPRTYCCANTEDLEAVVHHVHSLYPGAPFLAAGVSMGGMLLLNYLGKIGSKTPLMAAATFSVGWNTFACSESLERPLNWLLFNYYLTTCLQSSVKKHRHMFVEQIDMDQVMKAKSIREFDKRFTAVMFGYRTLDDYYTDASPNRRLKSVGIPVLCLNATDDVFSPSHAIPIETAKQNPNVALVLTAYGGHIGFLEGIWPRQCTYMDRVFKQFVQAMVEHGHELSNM
Method: HEK293T cells were seeded at 2×10^5 per well on 6 well plates and grown for 48 h. They were then transfected with mABHD3 (pCMV-Sport6), hABHD4 (pcDNA3.1/myc-his), hPPT1 (pCMV6-XL5), or hPPT1 S115A (pCMV6-XL5), by incubating 0.5 μg of DNA with 3 μL of PEI MAX (1 mg/mL, Polysciences, Inc) in serum-free DMEM for 30 min, then adding them to cells. After 48 h cells were either treated with compound in situ, as described above, or harvested for in vitro studies. The […] PPT1 mutation was introduced using QuikChange II Site Directed Mutagenesis Kit (Agilent) with the following primers: […]
Human ABHD3 and ABHD4 were recombinantly expressed by transient transfection in HEK293T cells, and the cell lysates were combined to provide a convenient assay for monitor inhibition of both enzymes by gel-based ABPP (see FIG. 8A).

ABHD4 [2] = target: T1, ABHD4; assay: NAPE substrate hydrolysis assay, ABHD4-transfected HEK293T cell lysates; type: biochemical; conditions: lysates from ABHD4-transfected HEK293T cells
Method: NAPE hydrolysis was measured by following the release of oleic acid from the NAPE substrate (1,2-dioleoyl-sn-glycero-3-phospho (N-arachidonoyl) ethanolamine).

[3] = test system: mouse LYPLA1/2 (quantified together); assay: IC50 by gel-based competitive ABPP in vitro, mouse brain membrane proteome; type: biochemical
Method: Assay Overview: The purpose of this assay was to determine IC50 values of powder samples of test compounds for enzyme of interest activity, and anti-targets in a complex proteomic lysate using a gel-based competitive ABPP assay. In this assay, a complex proteome was incubated with test compound followed by reaction with FP-Rh and SDS-PAGE analysis as described above.
Protocol Summary: Soluble HeLa cell proteome (50 μL reaction volume, 1 mg/mL in DPBS) or mouse brain membrane proteome (50 μL reaction volume, 1 mg/mL in DPBS) was treated with varying concentrations of test compound (1 μL of a 50× stock in DMSO) for 30 minutes at 37° C. FP-Rh (1 μL of 50× stock in DMSO) was added to a final concentration of 2 μM. The reaction was incubated for 30 minutes at 25° C., quenched with 16 μL 4×SDS-PAGE loading buffer (reducing), separated by SDS-PAGE and visualized by in-gel fluorescent scanning. The percentage activity remaining was determined by measuring the integrated optical density of the enzymes of interest, and anti-target bands relative to a DMSO-only (no compound) control. IC50 values were determined from dose-response curves from three replicates at each inhibitor concentration: 1, 10, 100, 1000, 10000 nM and 0.01, 0.1, 1, 10, 100, 1000, 10000, 50000, and 100000 nM.

ABHD3 = target: T3, ABHD3 (Homo sapiens, UniProt Q8WU67); assay: ABPP-SILAC, PC3 cells treated in situ; type: cell-based; conditions: 4 h in situ, FP-biotin
T3 construct: endogenous in cells; host or cells: PC3
Method: In situ inhibitor treatments of human cell lines were performed as described previously (Hsu et al., J Med Chem 56, 8270-8279, 2012). Briefly, PC3 or transfected HEK293T cells were grown to confluency in serum-containing media (RPMI or DMEM, respectively). The culture media was then removed and replaced with fresh media containing DMSO or inhibitor at the desired concentration and incubated for 4 hours in a tissue culture incubator (37° C., 5% CO2). Cells were then washed with PBS, harvested, washed with PBS once more, and lysed with a probe sonicator.
The activity and selectivity of dual ABHD3/4 and ABHD4-preferring inhibitors in PC3 cells by ABPP-SILAC was assessed. Isotopically heavy and light PC3 cells were treated in situ with inhibitor (Compound 37 (1 μM) or Compound 38 (0.5 μM)) or DMSO for 4 h and then lysed and processed for ABPP-SILAC analysis.

[4] = transfected HEK293T lysates, read-out: hABHD4 in vitro potency (IC50)
[5] = transfected HEK293T lysates, read-out: mABHD3 in vitro potency (IC50)
[6] = mouse LYPLA1/2, in vitro, read-out: mLYPLA1/2 in vitro potency (IC50)

T3 sequence (Q8WU67 whole entry): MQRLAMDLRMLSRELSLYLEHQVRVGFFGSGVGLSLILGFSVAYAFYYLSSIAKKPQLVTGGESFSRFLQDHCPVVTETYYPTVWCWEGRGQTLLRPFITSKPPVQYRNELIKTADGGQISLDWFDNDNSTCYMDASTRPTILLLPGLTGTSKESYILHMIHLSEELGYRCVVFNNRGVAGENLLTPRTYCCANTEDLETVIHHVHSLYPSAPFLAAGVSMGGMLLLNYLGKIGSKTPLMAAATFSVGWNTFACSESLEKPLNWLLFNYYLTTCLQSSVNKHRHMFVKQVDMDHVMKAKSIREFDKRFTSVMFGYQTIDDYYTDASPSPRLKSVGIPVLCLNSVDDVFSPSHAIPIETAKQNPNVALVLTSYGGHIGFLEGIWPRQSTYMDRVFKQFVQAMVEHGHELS

Compound: O=C(ON1C(=O)C2CN(Cc3ccc(Oc4ccccc4)cc3)CCN2C1=O)N1CCOCC1 (stereo not drawn) [Compound 34, 1,3-dioxo-7-(4-phenoxybenzyl)hexahydroimidazo[1,5-a]pyrazin-2(3H)-yl morpholine-4-carboxylate]
IC50 (ABHD4 [1]; [4]): ~1000 nM
IC50 (mABHD3; [5]): > 10000 nM
IC50 (ABHD4 [2]): 500 nM

Compound: O=C(ON1C(=O)C2CN(Cc3ccc(Oc4ccccc4)cc3)CCN2C1=O)N1CCC(c2ccccc2)CC1 (stereo not drawn) [Compound 38, 1,3-dioxo-7-(4-phenoxybenzyl)hexahydroimidazo[1,5-a]pyrazin-2(3H)-yl 4-phenylpiperidine-1-carboxylate]
inhibition of ABHD3 in PC3 cells (ABHD3; 0.5 μM): inhibit both ABHD3 and ABHD4
IC50 (ABHD4 [1]; combined HEK293T lysates, gel-based ABPP, read-out: ABHD4 IC50): 30 nM
IC50 (mABHD3; combined HEK293T lysates, gel-based ABPP, read-out: ABHD3 IC50): 130 nM
IC50 (mABHD3; [5]): 100 nM

Compound: COc1ccc(N2CCN(C(=O)ON3C(=O)C4CN(Cc5ccc(Oc6ccccc6)cc5)CCN4C3=O)CC2)cc1 (stereo not drawn) [Compound 37, 1,3-dioxo-7-(4-phenoxybenzyl)hexahydroimidazo[1,5-a]pyrazin-2(3H)-yl 4-(4-methoxyphenyl)piperazine-1-carboxylate]
inhibition at 1 µM (ABHD3; PC-3, 1 μM): ~80%
preference ABHD4 over ABHD3 (ABHD4 [1]; combined HEK293T lysates, gel-based ABPP): preferentially inhibited ABHD4 over ABHD3
IC50 (ABHD4 [1]; [4]): 100 nM
IC50 (mABHD3; [5]): 7600 nM

Compound: O=C(ON1C(=O)C2CN(C(=O)N3CCOCC3)CCN2C1=O)N1CCC(CCc2ccc(Cl)cc2)CC1 (stereo not drawn) [Compound 1, 7-(morpholine-4-carbonyl)-1,3-dioxohexahydroimidazo[1,5-a]pyrazin-2(3H)-yl 4-(4-chloro-phenethyl)piperidine-1-carboxylate]
IC50 ([3]; LYPLA1/2 quantified together, mouse brain membrane proteome, read-out: mouse LYPLA1/2 collective IC50 in vitro): 154 nM
potency and selectivity for LYPLA1/2, concentration-dependent profiling ([3]; mouse brain membrane SHs, FIG. 7B): good potency and selectivity
effect on NAPE hydrolysis activity of ABHD4 (ABHD4 [2]): neither Compound 26 nor Compound 1 altered

Compound: COc1ccc(N2CCN(C(=O)ON3C(=O)C4CN(CC5CCN(Cc6ccccc6)CC5)CCN4C3=O)CC2)cc1 (stereo not drawn) [Compound 26, 7-((1-benzylpiperidin-4-yl)methyl)-1,3-dioxohexahydroimidazo[1,5-a]pyrazin-2(3H)-yl 4-(4-methoxyphenyl)piperazine-1-carboxylate]
effect on NAPE hydrolysis activity of ABHD4 (ABHD4 [2]): neither Compound 26 nor Compound 1 altered

More lines, now with the values ahead:

IC50 [3, 6]: 29300 nM
Compound: COc1ccc(N2CCN(C(=O)ON3C(=O)[C@@H]4CN(CC5CCN(Cc6ccccc6)CC5)CCN4C3=O)CC2)cc1 [Compound 42, (S)-7-((1-benzylpiperidin-4-yl)methyl)-1,3-dioxo-hexahydroimidazo[1,5-a]pyrazin-2(3H)-yl 4-(4-methoxyphenyl)piperazine-1-carboxylate]

IC50 [3, 6]: 97 nM
Compound: O=C(ON1C(=O)[C@H]2CN(C(=O)N3CCOCC3)CCN2C1=O)N1CCC(CCc2ccc(Cl)cc2)CC1 [Compound 51, (R)-7-(morpholine-4-carbonyl)-1,3-dioxohexahydroimidazo[1,5-a]pyrazin-2(3H)-yl 4-(4-chloro-phenethyl)piperidine-1-carboxylate]

IC50 [3, 6]: 117 nM
Compound: O=C(ON1C(=O)[C@@H]2CN(C(=O)N3CCOCC3)CCN2C1=O)N1CCC(CCc2ccc(Cl)cc2)CC1 [Compound 50, (S)-7-(morpholine-4-carbonyl)-1,3-dioxohexahydroimidazo[1,5-a]pyrazin-2(3H)-yl 4-(4-chloro-phenethyl)piperidine-1-carboxylate]
